Here are results for ten compounds from patent US20200087258A1, “INHIBITOR OF CITRATE TRANSPORTER AND THEIR USE IN THERAPY” (Eternygen GmbH, priority 2017, published 2020).

A value given as a limit tells only on which side of the number the result lay.

Broadly, the IC50 is the concentration that gives 50% inhibition.

The target in assay [1] is T1, INDY (Homo sapiens, UniProt Q86YT5). Briefly: Fatty acid synthesis (FAS) assay from 14C-citrate in HepG2 cells. The format is cell-based. The note with it: 14C-citrate into fatty acids. The procedure: To test the functional activity of selected compounds and to bridge between the in vitro assay for citrate uptake to the physiological relevant lipid accumulation in liver cells a further functional cell assay was performed. This assay measured the effect of selected compounds on the citrate mediated fatty acid synthesis in hepatocytes.
T1 sequence (Q86YT5 whole entry): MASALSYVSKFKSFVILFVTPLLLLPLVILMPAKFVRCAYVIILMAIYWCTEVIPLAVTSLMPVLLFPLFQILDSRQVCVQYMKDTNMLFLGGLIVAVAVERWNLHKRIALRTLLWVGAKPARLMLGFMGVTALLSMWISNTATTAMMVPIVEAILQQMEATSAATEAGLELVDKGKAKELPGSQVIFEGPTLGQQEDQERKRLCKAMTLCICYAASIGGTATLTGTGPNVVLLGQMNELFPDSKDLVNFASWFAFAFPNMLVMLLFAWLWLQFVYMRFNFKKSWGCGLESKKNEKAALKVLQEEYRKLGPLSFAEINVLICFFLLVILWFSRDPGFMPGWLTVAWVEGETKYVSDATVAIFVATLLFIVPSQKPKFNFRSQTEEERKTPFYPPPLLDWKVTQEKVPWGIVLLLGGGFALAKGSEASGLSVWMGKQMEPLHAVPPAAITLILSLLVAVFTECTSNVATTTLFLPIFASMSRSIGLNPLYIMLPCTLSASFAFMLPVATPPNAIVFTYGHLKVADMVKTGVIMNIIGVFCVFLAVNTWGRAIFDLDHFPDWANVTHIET
Fatty acid synthesis (FAS) assay in HepG2: The principle of the assay is to measure the generation of ^14C-labelled fatty acids after uptake of ^14C labelled citrate into HepG2 cells. HepG2 cells were seeded into white clear-bottom 96-well plates (50,000/well) coated with collagen and incubated at 37° C. for 16-24 hours. After that plates were washed once with 100 μl PBS (+CaCl2+MgCl2) and 40 μl assay medium ([…] containing 11 mM glucose, 10 mM HEPES and 1 nM Insulin) per well was added. Test substances in assay medium were added ([…], 0.5% DMSO) and incubated for 20 min. After that 10 μl assay medium containing ^14C-citrate (final concentration 50 nM) and PrestoBlue reagent (1× final concentration; Life Technologies) were added and incubated for 60 min (37° C., 5% CO2). Cell viability was measured (Safire microplate reader, ex: 560/em: 590) and plates were incubated for another 30 min. Medium was removed by inverting the plate and cells were washed once with 100 μl ice-cold PBS. Cells were lysed with 50 μl lysis buffer (100 mM NaOH, 0.1% Triton X-100) and plate was sealed with Tape Pads and vortexed. For the saponification reaction plates were incubated for 16-24 hours at 80° C. Seals were removed and 200 μl […] was added for neutralisation of the pH. 150 μl from each well was transferred into the corresponding wells of a 96-well CytoStarT plate (Perkin Elmer) and sealed with TopSeal A (Perkin Elmer). Plates were incubated for 4 h at 70° C. and for 1 h at room temperature in the dark. Signal of ^14C radioactivity was measured (TopCount NXT scintillation counter, 1 min/well). As a positive control 5 mM citrate or 40 μM C75 (Sigma, C5490) was applied.

The target in assay [2] is T1, INDY. Briefly: 14C-citrate uptake in HEK293 cells overexpressing recombinant human INDY (NaCT). The format is cell-based. The arrangement: expressed in transfected cells; host or cells: HEK293. A digest of the protocol: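 HEK293 cells overexpressing human NaCT, 50,000/well, preincubated 5-30 min at 37 °C with compound in pH 6.5 Na+ buffer. 14C-citrate ([…]) uptake then ran 20-90 min at 37 °C, followed by ice-cold washes, NaOH lysis and scintillation counting. 10 mM citrate served as positive control.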

On to `O=C(NCc1ccccc1F)C1CCN(S(=O)(=O)/C=C/c2ccccc2)CC1` [Example 5], for which the IC50 is 1300 nM at INDY [1] and 2900 nM at INDY [2].

`CC(C)(C)c1ccc(S(=O)(=O)N2CCC(C(=O)NCc3ccccc3F)CC2)cc1` [Example 12, 1-(4-tert-butylbenzenesulfonyl)-N-[(2-fluorophenyl)methyl]piperidine-4-carboxamide]: the half-maximal inhibitory concentration (IC50) against INDY [1] is 600 nM; on INDY [2], 200 nM.

Take `O=C(NCc1ccccc1F)C1CCN(S(=O)(=O)c2ccc(C(F)(F)F)cc2)CC1` [Example 25, N-[(2-fluorophenyl)methyl]-1-[4-(trifluoromethyl)benzenesulfonyl]piperidine-4-carboxamide]: the half-inhibitory concentration (IC50) against INDY [1] is 400 nM; on INDY [2], more than 20000 nM.

As to `O=C(NCc1ccccc1F)C1CCN(S(=O)(=O)c2cc(Cl)cc(Cl)c2)CC1` [Example 44, 1-(3,5-dichlorobenzenesulfonyl)-N-[(2-fluorophenyl)methyl]piperidine-4-carboxamide], the IC50 at INDY [1] turned out to be 30 nM; at INDY [2], 100 nM.

`COc1ccccc1CNC(=O)C1CN(S(=O)(=O)c2ccc(C(C)(C)C)cc2)C1` [Example 50, 1-(4-tert-butylbenzenesulfonyl)-N-[(2-methoxyphenyl)methyl]azetidine-3-carboxamide]: the IC50 at INDY [1] is 6200 nM; at INDY [2] it was 4400 nM.

As to `O=C(NCc1ccccn1)C1CCN(S(=O)(=O)c2cc(Cl)cc(Cl)c2)CC1` [Example 55, 1-(3,5-dichlorobenzenesulfonyl)-N-[(pyridin-2-yl)methyl]piperidine-4-carboxamide], the IC50 on INDY [1] is 600 nM; at INDY [2] it was 800 nM.

In the case of `O=C(NCc1ccccn1)C1CCN(S(=O)(=O)c2ccc(C(F)(F)F)cc2)CC1` [Example 57, N-[(pyridin-2-yl)methyl]-1-[4-(trifluoromethyl)benzenesulfonyl]piperidine-4-carboxamide], the IC50 on INDY [1] came out at 2500 nM; at INDY [2], 4100 nM.

As to `O=C(NCc1ccccn1)C1CCN(S(=O)(=O)c2ccc(S(F)(F)(F)(F)F)cc2)CC1` [Example 86, 1-[4-(pentafluoro-lambda6-sulfanyl)benzenesulfonyl]-N-[(pyridin-2-yl)methyl]pipendine-4-carboxamide], the results for the half-maximal inhibitory concentration (IC50) against INDY [1] and at INDY [2] were 400 nM and 1100 nM, respectively.

Take `O=C(NCc1ccccc1CO)C1CCN(S(=O)(=O)c2cc(Cl)cc(Cl)c2)CC1` [Example 87, 1-(3,5-dichlorobenzenesulfonyl)-N-{[2-(hydroxymethyl)phenyl]methyl}piperidine-4-carboxamide]: the 50% inhibitory concentration (IC50) against INDY [1] and at INDY [2] was 600 nM each time.

On to `O=C(NCc1ccccn1)C1CCN(S(=O)(=O)c2cc(Cl)cc(C3CC3)c2)CC1` [Example 101, 1-(3-chloro-5-cyclopropylbenzenesulfonyl)-N-[(pyridin-2-yl)methyl]piperidine-4-carboxamide], for which the figures for the half-inhibitory concentration (IC50) against INDY [1] and at INDY [2] were 200 nM and 300 nM, respectively.
